pIC50: −log10 of the molar value.
Molecular target: hENPP2 (Homo sapiens, UniProt Q13822)
Experiment: Human ENPP2 (hENPP2) biochemical assay using LPC as substrate
Settings: 150 µM LPC (palmitoyl 16:0), 37°C for 30 min
Procedure, shortened: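 IC50 came from compound series (top 50 µM, 1/3 steps) incubated 30 min at 37°C with 1 or 3 µg/mL final enzyme and palmitoyl LPC added at 150 µM, pH 8.5 Tris buffer with Ca2+. Choline output measured as quinoneimine dye at 555 nm via coupled oxidase/HRP/TOOS detection.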

SMILES	pIC50
Cc1cncc(Nc2ncc3c(n2)CN(C2CCN(C(=O)c4ccc5[nH]nnc5c4)C2)C3)c1 (stereo not drawn) [compound 44, 1H-benzotriazol-5-yl-[3-[2-[(5-methyl-3-pyridyl)amino]-5,7-dihydropyrrolo[3,4-d]pyrimidin-6-yl]pyrrolidin-1-yl]methanone]	< 6.00
Cc1cncc(Nc2ncc3c(n2)CN(C2CCN(C(=O)c4ccc(S(N)(=O)=O)cc4)C2)C3)c1 (stereo not drawn) [compound 45, 4-[3-[2-[(5-methyl-3-pyridyl)amino]-5,7-dihydropyrrolo[3,4-d]pyrimidin-6-yl]pyrrolidine-1-carbonyl]benzenesulfonamide]	< 6.00
Cn1nc(C(C)(C)C)cc1Nc1ncc2c(n1)CN(C1CN(C(=O)c3ccc4[nH]nnc4c3)C1)C2 [compound 46, 1H-benzotriazol-5-yl-[3-[2-[(5-tert-butyl-2-methyl-pyrazol-3-yl)amino]-5,7-dihydropyrrolo[3,4-d]pyrimidin-6-yl]azetidin-1-yl]methanone]	< 6.00
Cc1cncc(Nc2ncc3c(n2)CN(C2CCN(C(=O)c4ccc(S(N)(=O)=O)cc4)CC2)C3)c1 [compound 47, 4-[4-[2-[(5-methyl-3-pyridyl)amino]-5,7-dihydropyrrolo[3,4-d]pyrimidin-6-yl]piperidine-1-carbonyl]benzenesulfonamide]	< 6.00
Cc1cncc(Nc2ncc3c(n2)CN(C2CN(C(=O)c4ccc(S(N)(=O)=O)cc4)C2)C3)c1 [compound 48, 4-[3-[2-[(5-methyl-3-pyridyl)amino]-5,7-dihydropyrrolo[3,4-d]pyrimidin-6-yl]azetidine-1-carbonyl]benzenesulfonamide]	< 6.00
Cc1cncc(Nc2ncc3c(n2)CN(C2CCN(C(=O)c4ccc5[nH]nnc5c4)CC2)C3)c1 [compound 49, 1H-benzotriazol-5-yl-[4-[2-[(5-methyl-3-pyridyl)amino]-5,7-dihydropyrrolo[3,4-d]pyrimidin-6-yl]-1-piperidyl]methanone]	6.00 to 6.30
Cn1nc(C(C)(C)C)cc1Nc1ncc2c(n1)CN(C1CCN(C(=O)c3ccc4[nH]nnc4c3)CC1)C2 [compound 50, 1H-benzotriazol-5-yl-[4-[2-[(5-tert-butyl-2-methyl-pyrazol-3-yl)amino]-5,7-dihydropyrrolo[3,4-d]pyrimidin-6-yl]-1-piperidyl]methanone]	< 6.00
Cc1cc(C)nc(Nc2ncc3c(n2)CN(C2CN(C(=O)c4ccc5[nH]nnc5c4)C2)C3)c1 [compound 51, 1H-benzotriazol-5-yl-[3-[2-[(4,6-dimethyl-2-pyridyl)amino]-5,7-dihydropyrrolo[3,4-d]pyrimidin-6-yl]azetidin-1-yl]methanone]	6.00 to 6.30
Cc1cc(C)nc(Nc2ncc3c(n2)CN(C2CN(C(=O)c4ccc5[nH]c(=O)oc5c4)C2)C3)c1 [compound 52, 6-[3-[2-[(4,6-dimethyl-2-pyridyl)amino]-5,7-dihydropyrrolo[3,4-d]pyrimidin-6-yl]azetidine-1-carbonyl]-3H-1,3-benzoxazol-2-one]	6.30 to 7.00
O=C(c1ccc2[nH]nnc2c1)N1CC(N2Cc3cnc(Nc4cc(F)cc(F)c4)nc3C2)C1 [compound 53, 1H-benzotriazol-5-yl-[3-[2-(3,5-difluoroanilino)-5,7-dihydropyrrolo[3,4-d]pyrimidin-6-yl]azetidin-1-yl]methanone]	6.30 to 7.00
O=C(c1ccc2[nH]nnc2c1)N1CCC(N2Cc3cnc(Nc4cc(F)cc(F)c4)nc3C2)CC1 [compound 54, 1H-benzotriazol-5-yl-[4-[2-(3,5-difluoroanilino)-5,7-dihydropyrrolo[3,4-d]pyrimidin-6-yl]-1-piperidyl]methanone]	6.30 to 7.00
O=C(c1ccc2[nH]c(=O)oc2c1)N1CCC(N2Cc3cnc(Nc4cc(F)cc(F)c4)nc3C2)CC1 [compound 55, 6-[4-[2-(3,5-difluoroanilino)-5,7-dihydropyrrolo[3,4-d]pyrimidin-6-yl]piperidine-1-carbonyl]-3H-1,3-benzoxazol-2-one]	6.30 to 7.00
Cc1cc(C)nc(Nc2ncc3c(n2)CN(C2CCN(C(=O)c4ccc5nn[nH]c5c4)CC2)C3)c1 [compound 56, 3H-benzotriazol-5-yl-[4-[2-[(4,6-dimethyl-2-pyridyl)amino]-5,7-dihydropyrrolo [3,4-d]pyrimidin-6-yl]-1-piperidyl]methanone]	< 6.00
O=C(c1ccc2[nH]c(=O)oc2c1)N1CC(N2Cc3cnc(Nc4cc(F)cc(F)c4)nc3C2)C1 [compound 57, 6-[3-[2-(3,5-difluoroanilino)-5,7-dihydropyrrolo[3,4-d]pyrimidin-6-yl]azetidine-1-carbonyl]-3H-1,3-benzoxazol-2-one]	7.00 to 11.00
N#Cc1ccc(Nc2ncc3c(n2)CN(C2CN(C(=O)c4ccc5[nH]nnc5c4)C2)C3)cc1 [compound 58, 4-[[6-[1-(1H-benzotriazole-5-carbonyl)azetidin-3-yl]-5,7-dihydropyrrolo[3,4-d]pyrimidin-2-yl]amino]benzonitrile]	7.00 to 11.00
N#Cc1ccc(Nc2ncc3c(n2)CN(C2CCN(C(=O)c4ccc5[nH]nnc5c4)CC2)C3)cc1 [compound 59, 4-[[6-[1-(1H-benzotriazole-5-carbonyl)-4-piperidyl]-5,7-dihydropyrrolo[3,4-d]pyrimidin-2-yl]amino]benzonitrile]	7.00 to 11.00
Cc1cc(C)cc(Nc2ncc3c(n2)CN(C2CCN(C(=O)c4ccc5[nH]c(=S)oc5c4)CC2)C3)c1 [compound 61, [4-[2-(3,5-dimethylanilino)-5,7-dihydropyrrolo[3,4-d]pyrimidin-6-yl]-1-piperidyl]-(2-thioxo-3H-1,3-benzoxazol-6-yl)methanone]	7.00 to 11.00
Cc1cc(C)cc(Nc2ncc3c(n2)CN(C2CN(C(=O)c4ccc5[nH]c(=S)oc5c4)C2)C3)c1 [compound 62, [3-[2-(3,5-dimethylanilino)-5,7-dihydropyrrolo[3,4-d]pyrimidin-6-yl]azetidin-1-yl]-(2-thioxo-3H-1,3-benzoxazol-6-yl)methanone]	7.00 to 11.00
Cc1cc(C)cc(Nc2ncc3c(n2)CN(C2CC4CC2CN4C(=O)c2ccc4[nH]nnc4c2)C3)c1 (stereo not drawn) [compound 63, 1H-benzotriazol-5-yl-[5-[2-(3,5-dimethylanilino)-5,7-dihydropyrrolo[3,4-d]pyrimidin-6-yl]-2-azabicyclo[2.2.1]heptan-2-yl]methanone]	< 6.00
Cc1cc(C)cc(Nc2ncc3c(n2)CN(C2CC4CC2CN4C(=O)c2ccc4[nH]c(=O)oc4c2)C3)c1 (stereo not drawn) [compound 64, 6-[5-[2-(3,5-dimethylanilino)-5,7-dihydropyrrolo[3,4-d]pyrimidin-6-yl]-2-azabicyclo[2.2.1]heptane-2-carbonyl]-3H-1,3-benzoxazol-2-one]	< 6.00
Cc1cc(C)cc(Nc2ncc3c(n2)CN(C2CCN(C(=O)c4cnc5[nH]nnc5c4)CC2C)C3)c1 (stereo not drawn) [compound 65, [4-[2-(3,5-dimethylanilino)-5,7-dihydropyrrolo[3,4-d]pyrimidin-6-yl]-3-methyl-1-piperidyl]-(3H-triazolo[4,5-b]pyridin-6-yl)methanone]	6.30 to 7.00
Cc1cc(C)cc(Nc2ncc3c(n2)CN(C2CC(C)N(C(=O)c4ccc5[nH]nnc5c4)C(C)C2)C3)c1 (stereo not drawn) [compound 68, 1H-benzotriazol-5-yl-[4-[2-(3,5-dimethylanilino)-5,7-dihydropyrrolo[3,4-d]pyrimidin-6-yl]-2,6-dimethyl-1-piperidyl]methanone]	< 6.00
Cc1cc(C)cc(Nc2ncc3c(n2)CN(C2CCN(C(=O)c4ccc5[nH]c(=O)sc5c4)CC2)C3)c1 [compound 69, 6-[4-[2-(3,5-dimethylanilino)-5,7-dihydropyrrolo[3,4-d]pyrimidin-6-yl]piperidine-1-carbonyl]-3H-1,3-benzothiazol-2-one]	7.00 to 11.00
Cc1cc(C)cc(Nc2ncc3c(n2)CN(C2CN(C(=O)c4ccc5[nH]c(=O)sc5c4)C2)C3)c1 [compound 70, 6-[3-[2-(3,5-dimethylanilino)-5,7-dihydropyrrolo[3,4-d]pyrimidin-6-yl]azetidine-1-carbonyl]-3H-1,3-benzothiazol-2-one]	7.00 to 11.00
Cc1cc(C)cc(Nc2ncc3c(n2)CN(C2CCN(C(=O)c4ccc(NS(C)(=O)=O)cc4)CC2)C3)c1 [compound 72, N-[4-[4-[2-(3,5-dimethylanilino)-5,7-dihydropyrrolo[3,4-d]pyrimidin-6-yl]piperidine-1-carbonyl]phenyl]methanesulfonamide]	< 6.00
Cc1cc(C)cc(Nc2ncc3c(n2)CN([C@@H]2CCN(C(=O)c4ccc5[nH]nnc5c4)[C@H](C)C2)C3)c1 [compound 73, 1H-benzotriazol-5-yl-[(2R,4R)-4-[2-(3,5-dimethylanilino)-5,7-dihydropyrrolo[3,4-d]pyrimidin-6-yl]-2-methyl-1-piperidyl]methanone]	7.00 to 11.00
Cc1cc(C)cc(Nc2ncc3c(n2)CN([C@H]2CCN(C(=O)c4ccc5[nH]nnc5c4)[C@@H](C)C2)C3)c1 [compound 74, 1H-benzotriazol-5-yl-[(2S,4S)-4-[2-(3,5-dimethylanilino)-5,7-dihydropyrrolo[3,4-d]pyrimidin-6-yl]-2-methyl-1-piperidyl]methanone]	7.00 to 11.00
Cc1cc(C)cc(Nc2ncc3c(n2)CCCN(C2CCN(C(=O)c4ccc5nn[nH]c5c4)CC2)C3)c1 [compound 75, 3H-benzotriazol-5-yl-[4-[2-(3,5-dimethylanilino)-5,7,8,9-tetrahydropyrimido[5,4-c]azepin-6-yl]-1-piperidyl]methanone]	< 6.00
Cc1cc(C)cc(Nc2ncc3c(n2)CN(C2CN(C(=O)c4ccc5nn[nH]c5c4)CC2C)C3)c1 (stereo not drawn) [compound 77, 3H-benzotriazol-5-yl-[3-[2-(3,5-dimethylanilino)-5,7-dihydropyrrolo[3,4-d]pyrimidin-6-yl]-4-methyl-pyrrolidin-1-yl]methanone]	6.30 to 7.00
Cc1cc(C)cc(Nc2ncc3c(n2)CN(C2[C@@H]4C[C@H]2CN(C(=O)c2ccc5[nH]nnc5c2)C4)C3)c1 (stereo partly drawn) [compound 78, 1H-benzotriazol-5-yl-[(1R,5S)-6-[2-(3,5-dimethylanilino)-5,7-dihydropyrrolo[3,4-d]pyrimidin-6-yl]-3-azabicyclo[3.1.1]heptan-3-yl]methanone]	7.00 to 11.00

Reference: patent publication EP3782997A1, “FUSED PYRIMIDINE COMPOUNDS AND PHARMACEUTICAL COMPOSITIONS THEREOF FOR THE TREATMENT OF FIBROTIC DISEASES” (Galapagos N.V., priority 2019, dated 2021)
